Assay results taken from ChEMBL document CHEMBL1131887, “Blockers of human T cell Kv1.3 potassium channels using de novo ligand design and solid-phase parallel combinatorial chemistry” (Bioorg Med Chem Lett, 1999).

Molecular target: Potassium voltage-gated channel subfamily A member 3 (Homo sapiens, UniProt P22001)
Assay: Displacement of [125I]- ChTX from human T cell voltage-gated potassium channel subunit Kv1.3
Format: cell-based

Chain of Potassium voltage-gated channel subfamily A member 3 (P22001 whole entry): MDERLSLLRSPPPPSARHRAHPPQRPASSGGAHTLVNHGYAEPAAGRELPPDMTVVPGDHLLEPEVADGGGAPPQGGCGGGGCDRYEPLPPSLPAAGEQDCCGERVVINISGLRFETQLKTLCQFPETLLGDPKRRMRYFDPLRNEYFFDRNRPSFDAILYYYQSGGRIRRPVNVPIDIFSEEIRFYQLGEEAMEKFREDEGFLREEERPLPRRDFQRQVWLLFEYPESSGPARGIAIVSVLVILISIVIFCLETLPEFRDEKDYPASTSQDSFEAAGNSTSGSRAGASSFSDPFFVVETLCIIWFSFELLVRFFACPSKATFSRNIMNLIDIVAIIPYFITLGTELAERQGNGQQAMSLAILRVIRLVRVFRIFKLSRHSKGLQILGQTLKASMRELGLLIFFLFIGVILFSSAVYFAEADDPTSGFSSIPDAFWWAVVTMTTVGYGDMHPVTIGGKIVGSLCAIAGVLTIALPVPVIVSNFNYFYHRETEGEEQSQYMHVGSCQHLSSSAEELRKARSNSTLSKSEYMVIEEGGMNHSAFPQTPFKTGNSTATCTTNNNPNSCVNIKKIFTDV

SMILES | IC50 [µM]
CCCCNC(=O)c1cc(/C=C/Cc2ccccc2)ccc1-c1ccc(Cl)cc1 | 6.1
CCCNC(=O)c1cc(/C=C/CCc2ccccc2)ccc1-c1ccc(Cl)cc1 | 4
CNC(=O)c1cc(/C=C/c2ccc(OCc3ccccc3)c(OCc3ccccc3)c2)ccc1-c1ccc(Cl)cc1 | 2.9
CCCNC(=O)c1cc(/C=C/Cc2ccccc2)ccc1-c1ccc(Cl)cc1 | 5.8
NC(N)=NNC(=O)c1cc(/C=C/c2ccc(F)cc2)ccc1-c1ccc(Cl)cc1 | 3.9
CC(C)NC(=O)c1cc(/C=C/c2ccc(Cl)c(F)c2)ccc1-c1ccc(Cl)cc1 | 3.7
CC(C)NC(=O)c1cc(/C=C/c2ccc(OCc3ccccc3)cc2)ccc1-c1ccc(Cl)cc1 | 9.9
CCCCNC(=O)c1cc(/C=C/c2ccccc2F)ccc1-c1ccc(Cl)cc1 | 8
CCNC(=O)c1cc(/C=C/CCc2ccccc2)ccc1-c1ccc(Cl)cc1 | 3.2
CC(C)NC(=O)c1cc(/C=C/Cc2ccccc2)ccc1-c1ccc(Cl)cc1 | 5.6
CCCCC/N=c1\ccn(Cc2ccccc2)c2ccccc12 [CP-339818] | 0.2
CCCNC(=O)c1cc(/C=C/c2ccc(F)cc2)ccc1-c1ccc(Cl)cc1 | 9.7
CC(C)NC(=O)c1cc(/C=C/c2cccc(Cl)c2)ccc1-c1ccc(Cl)cc1 | 10.1
